According to patent US20240391902A1, “Crystalline Form of Compound” (Shenzhen Forward Pharmaceuticals Co., Limited, priority 2020, published 2024):
“Also recorded” adds a separate entry of the source.

Columns and labels:
Assay type in all cases: physicochemical
[1] = Solid storage stability test; settings: for chemical and physical stability after storage: solid/25° C./60% RH/open/1 week and/or solid/60° C./closed container/1 week
Procedure: Each amorphous salt solid was weighed (two 2 mg samples were weighed for purity testing after solid storage stability study, and one 10 mg sample was weighed for XRPD testing after solid storage stability study) and placed in a glass vial. In a 25° C./60% RH solid storage stability test, the amorphous salt solid was placed in a 25° C./60% RH constant temperature and humidity chamber, and placed in the dark for 1 week (i.e. “solid/25° C./60% RH/open/1 week”), and in a 60° C. solid storage stability test, the amorphous salt solid was sealed in an oven at 60° C. and heated for 1 week in the dark (i.e. “solid/60° C./closed container/1 week”). Then the sample was taken out for purity testing, crystal form detection and appearance observation, respectively.

[2] = Solid solubility test (2 h and 24 h); settings: Test ES4: FaSSIF-V1 (pH 6.5); for Solubility measured at 2 h: 37° C., based on free base
Procedure: 5 samples were weighed for each amorphous salt solid (equivalent to 20 mg of free base), and 10 mL of the following solvents were respectively added: 0.1N HCl solution (pH 1.0), 50 mM phosphate buffer (pH 4.5), FeSSIF-V1 (pH 5.0), FaSSIF-V1 (pH 6.5) and SGF (pH 2.0), and stirred at 37° C. for 2 h. The suspension was then centrifuged at 37° C., the supernatant was measured for solubility by HPLC, and the solid fraction was measured for XRPD. The target solubility was at least 2 mg (based on free base)/mL.

Dynamic solubility test = settings: for dynamic solubility: room temperature, feeding concentration 10 mg/mL
Procedure: Determination method: According to a feeding concentration of 10 mg/mL, about 50 mg of the sample were weighed and added to 5 mL of the corresponding medium, and the sample was dissolved by rotating at […] at room temperature.

[3] = Test BS1: solid/25° C./60% RH/open/1 week
[4] = Test BS2: solid/60° C./closed container/1 week

Structure (SMILES): C=CC(=O)Nc1cc(Nc2ncnc(-c3cn(C)c4ccccc34)n2)c(OC)cc1N(C)CCN(C)C [Example 5]
- Morphology (XRPD crystallinity) [1, 3]: low crystallinity (FIG.
- Morphology (agglomeration, appearance) [1, 3]: 94), agglomeration
- Morphology (XRPD crystallinity) [1, 4]: amorphous (FIG. 94),
- Morphology (agglomeration, appearance) [1, 4]: partial agglomeration
- chemical and physical stability after storage ([1]; listed as 2 eq. mesylate salt): physically unstable
- chemical and physical stability after storage ([1]; listed as amorphous 2 eq. mesylate salt): physically unstable
- physical and chemical stability (in words) ([1]; solid/25° C./60% RH/open/1 week, listed as amorphous 2 eq. mesylate salt): transformed from amorphous to a low crystallinity and showed a certain hygroscopicity (agglomeration)
- physical and chemical stability (in words) ([1]; solid/60° C./closed container/1 week, listed as amorphous 2 eq. mesylate salt): a certain hygroscopicity (partial agglomeration)
- pH measured at 2 h [2]: (6.2)

Structure (SMILES): C=CC(=O)Nc1cc(Nc2ncnc(-c3cn(C)c4ccccc34)n2)c(OC)cc1N(C)CCN(C)C [Example 6]
- Morphology (XRPD crystallinity) [1, 3]: amorphous (FIG. 96),
- Morphology (XRPD crystallinity) [1, 4]: amorphous (FIG. 96),
- chemical and physical stability after storage ([1]; listed as 1 eq. besylate salt): chemically unstable
- chemical and physical stability after storage ([1]; listed as amorphous 1 eq. besylate salt): chemically unstable
- physical and chemical stability (in words) ([1]; solid/60° C./closed container/1 week, listed as amorphous 1 eq. besylate salt): good physical and chemical stability

Structure (SMILES): C=CC(=O)Nc1cc(Nc2ncnc(-c3cn(C)c4ccccc34)n2)c(OC)cc1N(C)CCN(C)C [Example 7]
- Color [1, 3]: slight color change
- Color [1, 4]: no color change
- Morphology (XRPD crystallinity) [1, 4]: amorphous (FIG. 98),
- Morphology (agglomeration, appearance) [1, 4]: no agglomeration
- chemical and physical stability after storage ([1]; listed as 2 eq. besylate salt): physically unstable
- chemical and physical stability after storage ([1]; listed as amorphous 2 eq. besylate salt): physically unstable
- physical and chemical stability (in words) ([1]; solid/25° C./60% RH/open/1 week, listed as amorphous 2 eq. besylate salt): slight color change and showed significant hygroscopicity (caking and fusion to a glassy state)
- physical and chemical stability (in words) ([1]; solid/60° C./closed container/1 week, listed as amorphous 2 eq. besylate salt): good physical and chemical stability
- pH measured at 2 h [2]: (6.1)
- Solubility measured at 2 h [2]: >2000 µg/mL

Structure (SMILES): C=CC(=O)Nc1cc(Nc2ncnc(-c3cn(C)c4ccccc34)n2)c(OC)cc1N(C)CCN(C)C [Example 8]
- Color [1, 3]: no color change
- Color [1, 4]: no color change
- Morphology (XRPD crystallinity) [1, 4]: amorphous (FIG. 100),
- Morphology (agglomeration, appearance) [1, 4]: no agglomeration
- chemical and physical stability after storage ([1]; listed as 1 eq. esylate salt): physically unstable
- chemical and physical stability after storage ([1]; listed as amorphous 1 eq. esylate salt): physically unstable
- physical and chemical stability (in words) ([1]; solid/25° C./60% RH/open/1 week, listed as amorphous 1 eq. esylate salt): significant hygroscopicity (caking and fusion to a glassy state)
- physical and chemical stability (in words) ([1]; solid/60° C./closed container/1 week, listed as amorphous 1 eq. esylate salt): good physical and chemical stability
- pH measured at 2 h [2]: (6.4)
- Solubility measured at 2 h [2]: >2000 µg/mL

Structure (SMILES): C=CC(=O)Nc1cc(Nc2ncnc(-c3cn(C)c4ccccc34)n2)c(OC)cc1N(C)CCN(C)C [Example 9]
- Color [1, 3]: slight color change
- Morphology (XRPD crystallinity) [1, 3]: amorphous (FIG. 101),
- Morphology (agglomeration, appearance) [1, 3]: agglomeration (FIG. 102)
- Color [1, 4]: no color change
- Morphology (XRPD crystallinity) [1, 4]: low crystallinity
- chemical and physical stability after storage ([1]; listed as 1 eq. maleate salt): chemically unstable; also recorded: physically unstable
- chemical and physical stability after storage ([1]; listed as amorphous 1 eq. maleate salt): chemically unstable; also recorded: physically unstable
- physical and chemical stability (in words) ([1]; solid/25° C./60% RH/open/1 week, listed as amorphous 1 eq. maleate salt): slight color change and showed a certain hygroscopicity (agglomeration)
- physical and chemical stability (in words) ([1]; solid/60° C./closed container/1 week, listed as amorphous 1 eq. maleate salt): transformed from amorphous to a low crystallinity
- pH measured at 2 h [2]: (6.1)
- Solubility measured at 2 h [2]: >2000 µg/mL

Structure (SMILES): C=CC(=O)Nc1cc(Nc2ncnc(-c3cn(C)c4ccccc34)n2)c(OC)cc1N(C)CCN(C)C [Example 22]
- dynamic solubility (Dynamic solubility test; FaSSIF, 0.5 h, listed as crystaline form II-A of mesylate salt): 6600 µg/mL
- dynamic solubility (Dynamic solubility test; FaSSIF, 1 h, listed as crystaline form II-A of mesylate salt): 6200 µg/mL
- dynamic solubility (Dynamic solubility test; FaSSIF, 2 h, listed as crystaline form II-A of mesylate salt): 7000 µg/mL
- dynamic solubility (Dynamic solubility test; FaSSIF, 4 h, listed as crystaline form II-A of mesylate salt): 6900 µg/mL
- dynamic solubility (Dynamic solubility test; FaSSIF, 24 h, listed as crystaline form II-A of mesylate salt): 9900 µg/mL
- dynamic solubility (Dynamic solubility test; SGF, 0.5 h, listed as crystaline form II-A of mesylate salt): >10000 µg/mL
- dynamic solubility (Dynamic solubility test; SGF, 1 h, listed as crystaline form II-A of mesylate salt): >10000 µg/mL
- dynamic solubility (Dynamic solubility test; SGF, 2 h, listed as crystaline form II-A of mesylate salt): >10000 µg/mL
- dynamic solubility (Dynamic solubility test; SGF, 4 h, listed as crystaline form II-A of mesylate salt): >10000 µg/mL
- dynamic solubility (Dynamic solubility test; SGF, 24 h, listed as crystaline form II-A of mesylate salt): >10000 µg/mL
- solubility (Dynamic solubility test; water, SGF, FaSSIF and FeSSIF, thermodynamic from solid, water, SGF, FaSSIF and FeSSIF, all time points, read-out: dynamic solubility in water, SGF, FaSSIF and FeSSIF (conclusion)): > 4000 µg/mL

Structure (SMILES): C=CC(=O)Nc1cc(Nc2ncnc(-c3cn(C)c4ccccc34)n2)c(OC)cc1N(C)CCN(C)C [Example 23]
- dynamic solubility (Dynamic solubility test; FaSSIF, 0.5 h, listed as crystaline form III-A of hydrochloride salt): 5300 µg/mL
- dynamic solubility (Dynamic solubility test; FaSSIF, 1 h, listed as crystaline form III-A of hydrochloride salt): 5200 µg/mL
- dynamic solubility (Dynamic solubility test; FaSSIF, 2 h, listed as crystaline form III-A of hydrochloride salt): 5000 µg/mL
- dynamic solubility (Dynamic solubility test; FaSSIF, 4 h, listed as crystaline form III-A of hydrochloride salt): 5000 µg/mL
- dynamic solubility (Dynamic solubility test; FaSSIF, 24 h, listed as crystaline form III-A of hydrochloride salt): 8200 µg/mL
- dynamic solubility (Dynamic solubility test; SGF, 0.5 h, listed as crystaline form III-A of hydrochloride salt): >10000 µg/mL
- dynamic solubility (Dynamic solubility test; SGF, 1 h, listed as crystaline form III-A of hydrochloride salt): >10000 µg/mL
- dynamic solubility (Dynamic solubility test; SGF, 2 h, listed as crystaline form III-A of hydrochloride salt): >10000 µg/mL
- dynamic solubility (Dynamic solubility test; SGF, 4 h, listed as crystaline form III-A of hydrochloride salt): >10000 µg/mL
- dynamic solubility (Dynamic solubility test; SGF, 24 h, listed as crystaline form III-A of hydrochloride salt): >10000 µg/mL

Structure (SMILES): C=CC(=O)Nc1cc(Nc2ncnc(-c3cn(C)c4ccccc34)n2)c(OC)cc1N(C)CCN(C)C [Example 24]
- dynamic solubility (Dynamic solubility test; FaSSIF, 0.5 h, listed as crystaline form IV-C of maleate salt): 6100 µg/mL
- dynamic solubility (Dynamic solubility test; FaSSIF, 1 h, listed as crystaline form IV-C of maleate salt): 6200 µg/mL
- dynamic solubility (Dynamic solubility test; SGF, 0.5 h, listed as crystaline form IV-C of maleate salt): >10000 µg/mL
- dynamic solubility (Dynamic solubility test; SGF, 1 h, listed as crystaline form IV-C of maleate salt): >10000 µg/mL
- dynamic solubility (Dynamic solubility test; SGF, 2 h, listed as crystaline form IV-C of maleate salt): >10000 µg/mL
- dynamic solubility (Dynamic solubility test; SGF, 4 h, listed as crystaline form IV-C of maleate salt): >10000 µg/mL
- dynamic solubility (Dynamic solubility test; SGF, 24 h, listed as crystaline form IV-C of maleate salt): >10000 µg/mL
